The test system of experiment [1] is MV-4-11 human acute myeloid leukemia cell line. Nature of the experiment: Cell viability assay in MV-4-11 cells (Cell Titer-Glo). Format: cell-based. The settings on record: MV4-11, 72 hrs incubation. Here is the method:
The effects of test compounds were studied in a cell viability assay in the MV-4-11 human acute myeloid leukemia cell line. The cells were harvested during the logarithmic growth period and counted. Cells were seeded at a count of 15000 cells per well/100 μl. After seeding, cells were incubated at 37° C. 5% CO2 for 1 hr. Cells were treated with test compounds at 8 concentrations within a desired concentration range (e.g. 5 nM-10 μM) for generation of dose response curves by preparing serial dilutions of the test compound in DMSO which were further diluted with culture medium and then added to each well. The plate was further incubated for another 72 hrs in a humidified incubator at 37° C. and 5% CO2. The assay was terminated by addition of Cell Titer-Glo reagent (Promega, Madison, Wis.) at ¼ the volume of total medium per well. Contents were mixed, the plate was incubated for 10 min at room temperature and luminescence was measured. Cell viability data were plotted using GraphPad Prism (GraphPad Software, Inc., San Diego, Calif.). In addition, a nonlinear regression model with a sigmoidal dose response and variable slope within GraphPad Prism was used to calculate the IC50 value of individual test compounds.
Background: ATP-based viability assays read luminescence as a measure of living cells.

Experiment [2] relates to IEC-6 rat intestinal epithelial cell line. Nature of the experiment: Cell viability assay in IEC-6 cells (resazurin), potential toxicity to non-cancerous cells. To be noted: Protocol B: 4000 cells per well, 48 hrs incubation with test compound, read-out: Protocol B IC50 (μM), cell viability in IEC-6 cells. It is filed as cell-based. Here is the method: The effects of test compounds were also studied in the IEC-6 rat intestinal epithelial cell line to assess potential toxicity to non-cancerous cells. The cells were harvested during the logarithmic growth period and counted. In Protocol A, cells were seeded at a count of 3000 cells per well/100 μl in a 96-well plate. After seeding, cells were incubated at 37° C. 5% CO2 for 24 hr. Cells were treated with test compounds at 8 concentrations within a desired concentration range (e.g. 5 nM-10 μM) for generation of dose response curves by preparing serial dilutions of the test compound in DMSO which were further diluted with culture medium and then added to each well. The plate was further incubated for another 96 hrs in humidified incubator at 37° C. and 5% CO2. The assay was terminated by addition of resazurin (#R7017, Sigma). The plate was incubated for 4 hr at 37° C. 5% CO2 and fluorescence was measured using excitation and emission wavelengths of 535 and 590 nm, respectively. Cell viability data were plotted using GraphPad Prism (GraphPad Software, Inc., San Diego, Calif.). In addition, a nonlinear regression model with a sigmoidal dose response and variable slope within GraphPad Prism was used to calculate the IC50 value of individual test compounds. Protocol B was the same as Protocol A except that cells were seeded at a count of 4000 cells per well/100 μl in a 96-well plate, and the incubation with test compound was for 48 hrs instead of 96 hrs.
(In general: The colour change of resazurin is a common sign of viable cells or microbes.)

The next experiment addresses BRD4-2 (Homo sapiens (Human), UniProt O60885). Nature of the experiment: Bromodomain and Extraterminal Domain (BET) binding assay, BRD4-2. The settings on record: histone H4 peptide (1-21) K5/8/12/16Ac-biotin ligand; 130 nM protein, 70 nM ligand. Here is the method: (§1) The bromodomain binding assays were performed by Reaction Biology Corp., Malvern, Pa., USA (www.reactionbiology.com). The BET binding assays were conducted in 384 well microplates in assay buffer (50 mM HEPES-HCl, pH 7.5, 100 mM NaCl, 1 mg/ml BSA, 0.05% CHAPS, and 0.5% DMSO) with compounds added as DMSO stocks at a single concentration or with 10-point dose response titrations. BET protein or assay buffer were delivered to the appropriate wells of the microplate. Test compound was then delivered by acoustic technology via a Labcyte Echo550 liquid handler. The microplate was centrifuged for 5 min and pre-incubated for 30 min at RT with gentle shaking. The ligand (histone H4 peptide (1-21) K5/8/12/16Ac-biotin) was delivered and the microplate was again centrifuged for 5 min and allowed to incubate for 30 min at RT with gentle shaking. Donor beads were then added in the absence of light and the microplate was centrifuged and gently shaken. After 5 min, acceptor beads were added in the absence of light and the microplate was centrifuged and gently shaken in the dark for 60 min. The microplate was read using a Perkin Elmer EnSpire Alpha plate reader (λ Ex/λ Em=680/520-620 nm). Percent inhibition was calculated relative to positive and negative controls on a per plate basis. For titration experiments, IC50 values were determined by fitting the percent inhibition versus compound concentration.

A further experiment concerns the target BRD4-1 (Homo sapiens (Human), UniProt O60885). In words: Bromodomain and Extraterminal Domain (BET) binding assay, BRD4-1. To be noted: histone H4 peptide (1-21) K5/8/12/16Ac-biotin ligand; 20 nM protein, 20 nM ligand. How it is done: as §1

Structures are written as SMILES. pIC50: −log10 of the molar value.

Broadly, the IC50 is the concentration needed to halve the response being measured. What is called pIC50 is the IC50 on a negative log10 scale, so that one unit is a factor of ten. Lower therefore signals a large IC50. Turning to `CCNC(=O)c1cc2c(=O)n(C)cc(-c3cc(C(C)(C)O)ccc3Oc3c(C)cc(F)cc3C)c2s1` [Compound 146, N-ethyl-7-(2-(4-fluoro-2,6-dimethylphenoxy)-5-(2-hydroxypropan-2-yl)phenyl)-5-methyl-4-oxo-4,5-dihydrothieno[3,2-c]pyridine-2-carboxamide], the results for the IC50 in experiment [1] and in experiment [2] were 0.084 µM and 0.729 µM, respectively. The pIC50 was 8.70 on BRD4-2 and 5.53 at BRD4-1.

Source of the values: US11584756B2, “Heterocyclic compounds as BET inhibitors” (NUVATION BIO INC., priority 2019, dated 2023).
